One assay addresses T1, glucagon receptor (GCGR) (Homo sapiens, UniProt P47871).
T1 construct: expressed in transfected cells; host or cells: CHO-K1 cells overexpressing GCGR (membrane fractions)
Description: I125-glucagon binding assay (competition, GCGR membrane fractions). In outline:
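Membranes from CHO-K1 cells overexpressing GCGR, 7.5 μg/well in 50 mM Tris pH 7.4 with 0.5% BSA, were preincubated 5 min with serially diluted compounds, then given 0.0625 nM final I^125-glucagon for 30 min at 25° C. Bound label was filtered on PEI-coated GF/B and counted; IC50 by non-linear regression.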

Assay [1] has as its target T2, glucagon receptor (GCGR) overexpressed CHO-K1 cells or human primary hepatocytes (Homo sapiens, UniProt P47871).
T2 construct: expressed in transfected cells; host or cells: GCGR overexpressed CHO-K1 cells or human primary hepatocytes (endogenous receptor)
In words: Glucagon cAMP inhibition assay (Cisbio cAMP Dynamic 2 HTRF). It is filed as cell-based. In outline:
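GCGR-overexpressing CHO-K1 cells or human primary hepatocytes in HBSS with 0.1% BSA and 800 nM IBMX, pre-incubated 30 min with serially diluted compounds (1% DMSO final), then stimulated 30 min at room temperature with glucagon at its EC50. cAMP measured by HTRF after 60 min lysis; IC50 by non-linear regression.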

Broadly, the IC50 is the midpoint of a concentration-inhibition curve. A high value points to lower potency.

Like-named read-outs stand apart in the source and are kept apart here. Bounds are passed on as bounds.

T1 sequence (P47871 26-477): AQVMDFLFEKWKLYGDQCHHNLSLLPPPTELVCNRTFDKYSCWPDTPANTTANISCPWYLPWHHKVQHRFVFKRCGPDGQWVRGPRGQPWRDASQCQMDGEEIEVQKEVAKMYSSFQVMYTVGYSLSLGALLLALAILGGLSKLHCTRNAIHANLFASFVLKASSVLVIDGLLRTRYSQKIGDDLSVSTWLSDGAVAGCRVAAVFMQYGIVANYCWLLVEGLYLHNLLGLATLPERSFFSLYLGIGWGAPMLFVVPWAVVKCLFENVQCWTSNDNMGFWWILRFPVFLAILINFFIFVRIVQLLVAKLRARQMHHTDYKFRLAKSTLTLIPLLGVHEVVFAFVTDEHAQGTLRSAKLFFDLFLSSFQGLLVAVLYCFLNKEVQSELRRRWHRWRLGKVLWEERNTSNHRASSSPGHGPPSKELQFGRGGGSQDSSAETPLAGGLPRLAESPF
T2 sequence (P47871 26-477): as above

`CCOC(=O)CCNC(=O)c1ccc(N[C@@H](CC(C)C)C(=O)Nc2ccc(-c3cc4ccccc4o3)cc2)cc1` [Compound 23-6, Ethyl (S)-3-(4-((1-((4-(benzofuran-2-yl)phenyl)amino)-4-methyl-1-oxopentan-2-yl)amino)benzamido)propanoate] had an IC50 at glucagon receptor (GCGR) of 2.51 µM. Besides, the “IC50 cAMP” value in assay [1] came to 0.181 µM.
Regarding `CCOC(=O)CCNC(=O)c1ccc(N[C@@H](Cc2ccccc2)C(=O)Nc2ccc(-c3cc4ccccc4o3)cc2)cc1` [Compound 23-7, Ethyl (S)-3-(4-((1-((4-(benzofuran-2-yl)phenyl)amino)-1-oxo-3-phenylpropan-2-yl)amino)benzamido)propanoate], the IC50 on glucagon receptor (GCGR) came to 4.27 µM. In addition, the “IC50 cAMP” value in assay [1] worked out at 0.0643 µM.
As to `O=C(O)CCNC(=O)c1ccc(N[C@@H](Cc2ccccc2)C(=O)Nc2ccc(-c3cc4ccccc4o3)cc2)cc1` [Compound 23-8, (S)-3-(4-((1-((4-(benzofuran-2-yl)phenyl)amino)-1-oxo-3-phenylpropan-2-yl)amino)benzamido)propanoic Acid], the IC50 at glucagon receptor (GCGR) (uM) was > 10 µM. For the same compound, the “IC50 cAMP” value in assay [1] came to 2 µM.
Take `CCOC(=O)CCNC(=O)c1ccc(N[C@@H](Cc2ccc(F)cc2)C(=O)Nc2ccc(-c3cc4ccccc4o3)cc2)cc1` [Compound 23-9, Ethyl (S)-3-(4-((1-((4-(benzofuran-2-yl)phenyl)amino)-3-(4-fluorophenyl)-1-oxopropan-2-yl)amino)benzamido)propanoate]: on glucagon receptor (GCGR), the IC50 worked out at 1.94 µM. For the same compound, in assay [1], the “IC50 cAMP” value amounted to 2.6 µM.
Take `O=C(O)CCNC(=O)c1ccc(N[C@@H](Cc2ccc(F)cc2)C(=O)Nc2ccc(-c3cc4ccccc4o3)cc2)cc1` [Compound 23-10, (S)-3-(4-((1-((4-(benzofuran-2-yl)phenyl)amino)-3-(4-fluorophenyl)-1-oxopropan-2-yl)amino)benzamido)propanoic Acid]: the IC50 at glucagon receptor (GCGR) was 0.061 µM. The “IC50 cAMP” value in assay [1] came to 1.9 µM.
As for `CCOC(=O)CCNC(=O)c1ccc(N[C@@H](CC(C)C)C(=O)Nc2ccc(-c3cc4ccccc4s3)cc2)cc1` [Compound 23-11, Ethyl (S)-3-(4-((1-((4-(benzo[b]thiophen-2-yl)phenyl)amino)-4-methyl-1-oxopentan-2-yl)amino)benzamido)propanoate], the IC50 on glucagon receptor (GCGR) (uM) was > 10 µM. Moreover, the “IC50 cAMP” value in assay [1] came to 6.8 µM.
For `CC(C)C[C@H](Nc1ccc(C(=O)NCCC(=O)O)cc1)C(=O)Nc1ccc(-c2cc3ccccc3s2)cc1` [Compound 23-12, (S)-3-(4-((1-((4-(benzo[b]thiophen-2-yl)phenyl)amino)-4-methyl-1-oxopentan-2-yl)amino)benzamido)propanoic Acid], the IC50 at glucagon receptor (GCGR) came out at 0.375 µM. Moreover, the “IC50 cAMP” value in assay [1] was 4.1 µM.
On to `CCOC(=O)CCNC(=O)c1ccc(N[C@@H](Cc2cccc3ccccc23)C(=O)Nc2ccc(-c3cc4ccccc4o3)cc2)cc1` [Compound 23-13, Ethyl (S)-3-(4-((1-((4-(benzofuran-2-yl)phenyl)amino)-3-(naphthalen-1-yl)-1-oxopropan-2-yl)amino)benzamido)propanoate], for which, at glucagon receptor (GCGR) (uM), the IC50 was > 10 µM. Moreover, the “IC50 cAMP” value in assay [1] (uM) is >10 µM.
Regarding `O=C(O)CCNC(=O)c1ccc(N[C@@H](Cc2ccccc2)C(=O)Nc2ccc(-c3ccc(Cl)cc3Cl)cc2)cc1` [Compound 23-14, (S)-3-(4-((1-((2′,4′-dichloro-[1,1′-biphenyl]-4-yl)amino)-1-oxo-3-phenylpropan-2-yl)amino)benzamido)propanoic Acid], on glucagon receptor (GCGR) (uM), the IC50 is > 10 µM. The “IC50 cAMP” value in assay [1] (uM) is >10 µM.
Consider `CCOC(=O)CCNC(=O)c1ccc(N[C@@H](Cc2ccccc2)C(=O)Nc2ccc(-c3ccc(Cl)cc3Cl)cc2)cc1` [Compound 23-15, Ethyl (S)-3-(4-((1-((2′,4′-dichloro-[1,1′-biphenyl]-4-yl)amino)-1-oxo-3-phenylpropan-2-yl)amino)benzamido)propanoate], for which the IC50 at glucagon receptor (GCGR) (uM) is > 10 µM. Also, the “IC50 cAMP” value in assay [1] stood at 6.3 µM.
For `O=C(O)CCNC(=O)c1ccc(N[C@@H](Cc2cccc3ccccc23)C(=O)Nc2ccc(-c3cc4ccccc4o3)cc2)cc1` [Compound 23-16], at glucagon receptor (GCGR), the IC50 was found to be 3.01 µM. The “IC50 cAMP” value in assay [1] was found to be 1.193 µM.
`CCOC(=O)CCNC(=O)c1ccc(N[C@@H](Cc2cccc3ccccc23)C(=O)Nc2ccc(C(C)(C)C)cc2)cc1` [Compound 23-17, Ethyl (S)-3-(4-((1-((4-(tert-butyl)phenyl)amino)-3-(naphthalen-1-yl)-1-oxopropan-2-yl)amino)benzamido)propanoate]: the concentration for half-maximal inhibition (IC50) on glucagon receptor (GCGR) (uM) is > 10 µM. The “IC50 cAMP” value in assay [1] amounted to 7.4 µM.
`CC(C)(C)c1ccc(NC(=O)[C@H](Cc2cccc3ccccc23)Nc2ccc(C(=O)NCCC(=O)O)cc2)cc1` [Compound 23-18, (S)-3-(4-((1-((4-(tert-butyl)phenyl)amino)-3-(naphthalen-1-yl)-1-oxopropan-2-yl)amino)benzamido)propanoic Acid]: at glucagon receptor (GCGR), the half-maximal inhibitory concentration (IC50) was found to be 1.87 µM. Also, the “IC50 cAMP” value in assay [1] came out at 4.7 µM.
As for `CCOC(=O)CCNC(=O)c1ccc(N[C@@H](Cc2ccc3ccccc3c2)C(=O)Nc2ccc(C(C)(C)C)cc2)cc1` [Compound 23-19, Ethyl (S)-3-(4-((1-((4-(tert-butyl)phenyl)amino)-3-(naphthalen-2-yl)-1-oxopropan-2-yl)amino)benzamido)propanoate], the IC50 at glucagon receptor (GCGR) (uM) was > 10 µM. The “IC50 cAMP” value in assay [1] was determined as 5.4 µM.
As to `CC(C)(C)c1ccc(NC(=O)[C@H](Cc2ccc3ccccc3c2)Nc2ccc(C(=O)NCCC(=O)O)cc2)cc1` [Compound 23-20, (S)-3-(4-((1-((4-(tert-butyl)phenyl)amino)-3-(naphthalen-2-yl)-1-oxopropan-2-yl)amino)benzamido)propanoic Acid], the IC50 at glucagon receptor (GCGR) turned out to be 0.724 µM. Moreover, in assay [1], the “IC50 cAMP” value came to 4.7 µM.
For the compound `CCOC(=O)CCNC(=O)c1ccc(N[C@@H](Cc2ccc3ccccc3c2)C(=O)Nc2ccc(-c3cc4ccccc4o3)cc2)cc1` [Compound 23-21, Ethyl (S)-3-(4-((1-((4-(benzofuran-2-yl)phenyl)amino)-3-(naphthalen-2-yl)-1-oxopropan-2-yl)amino)benzamido)propanoate], the IC50 at glucagon receptor (GCGR) (uM) is > 10 µM. Moreover, the “IC50 cAMP” value in assay [1] (uM) is >10 µM.
For the compound `O=C(O)CCNC(=O)c1ccc(N[C@@H](Cc2ccc3ccccc3c2)C(=O)Nc2ccc(-c3cc4ccccc4o3)cc2)cc1` [Compound 23-22, (S)-3-(4-((1-((4-(benzofuran-2-yl)phenyl)amino)-3-(naphthalen-2-yl)-1-oxopropan-2-yl)amino)benzamido)propanoic Acid], on glucagon receptor (GCGR) (uM), the IC50 is > 10 µM. For the same compound, the “IC50 cAMP” value in assay [1] turned out to be 32.1 µM.
Regarding `O=C(O)CCNC(=O)c1ccc(N[C@@H](Cc2ccccc2)C(=O)Nc2ccc(-c3ccccc3C(F)(F)F)cc2)cc1` [Compound 23-23], at glucagon receptor (GCGR), the IC50 was determined as 4.15 µM. Besides, the “IC50 cAMP” value in assay [1] was 5.8 µM.
On to `O=C(NCCS(=O)(=O)O)c1ccc(N[C@@H](Cc2ccccc2)C(=O)Nc2ccc(-c3cc4ccccc4o3)cc2)cc1` [Compound 23-24, (S)-2-(4-((1-((4-(benzofuran-2-yl)phenyl)amino)-1-oxo-3-phenylpropan-2-yl)amino)benzamido)ethane-1-sulfonic Acid], for which the IC50 at glucagon receptor (GCGR) (uM) was > 10 µM. In addition, the “IC50 cAMP” value in assay [1] (uM) was >10 µM.
Compound `Cc1cc(C)c(-c2ccc(C[C@H](Nc3ccc(C(=O)NCCC(=O)O)cc3)C(=O)Nc3ccc(C(C)(C)C)cc3)cc2)c(C)c1` [Compound 23-25] came in with an IC50 on glucagon receptor (GCGR) of 0.458 µM. Besides, the “IC50 cAMP” value in assay [1] stood at 3.1 µM.
Compound `COC(=O)CCNC(=O)c1ccc(N[C@@H](CC(C)C)C(=O)Nc2ccc(-c3cc4ccccc4[nH]3)cc2)cc1` [Compound 23-28, Methyl (S)-3-(4-((1-((4-(1H-indol-2-yl)phenyl)amino)-4-methyl-1-oxopentan-2-yl)amino)benzamido)propanoate] came in with an IC50 at glucagon receptor (GCGR) of 6.94 µM. Moreover, the “IC50 cAMP” value in assay [1] was found to be 0.179 µM.
Compound `CC(C)C[C@H](Nc1ccc(C(=O)NCCC(=O)O)cc1)C(=O)Nc1ccc(-c2cc3ccccc3[nH]2)cc1` [Compound 23-29, (S)-3-(4-((1-((4-(1H-indol-2-yl)phenyl)amino)-4-methyl-1-oxopentan-2-yl)amino)benzamido)propanoic Acid] yielded an IC50 on glucagon receptor (GCGR) of 0.141 µM. Moreover, the “IC50 cAMP” value in assay [1] (uM) was >10 µM.
`CCOC(=O)CCNC(=O)c1ccc(N[C@H](C(=O)Nc2ccc(-c3cc4ccccc4o3)cc2)[C@@H](C)CC)cc1` [Compound 23-30] registered an IC50 on glucagon receptor (GCGR) of 1.48 µM. Further, the “IC50 cAMP” value in assay [1] was 0.0252 µM.
With `CC[C@H](C)[C@H](Nc1ccc(C(=O)NCCC(=O)O)cc1)C(=O)Nc1ccc(-c2cc3ccccc3o2)cc1` [Compound 23-31, 3-(4-(((2S,3S)-1-((4-(benzofuran-2-yl)phenyl)amino)-3-methyl-1-oxopentan-2-yl)amino)benzamido)propanoic Acid], the IC50 on glucagon receptor (GCGR) was 0.294 µM. Also, the “IC50 cAMP” value in assay [1] was 4.145 µM.
For `CCOC(=O)CCNC(=O)c1ccc(N[C@H](C(=O)Nc2ccc(-c3cc4ccccc4o3)cc2)C(C)C)cc1` [Compound 23-32, Ethyl (S)-3-(4-((1-((4-(benzofuran-2-yl)phenyl)amino)-3-methyl-1-oxobutan-2-yl)amino)benzamido)propanoate] the same measures were 5.18 µM and 0.0928 µM.
As for `CC(C)[C@H](Nc1ccc(C(=O)NCCC(=O)O)cc1)C(=O)Nc1ccc(-c2cc3ccccc3o2)cc1` [Compound 23-33, (S)-3-(4-((1-((4-(benzofuran-2-yl)phenyl)amino)-3-methyl-1-oxobutan-2-yl)amino)benzamido)propanoic Acid], the IC50 on glucagon receptor (GCGR) was determined as 1.01 µM. Also, the “IC50 cAMP” value in assay [1] was found to be 1.633 µM.

The values above are taken from patent US11384060B2, “Amide compounds and use thereof” (ALPHALA CO., LTD., priority 2017, dated 2022).
